Experimental data reported in patent US9274101B2 (BIOLOG, Inc., priority 2001, dated 2016).

These compounds were tested on ten strains of E. coli. Further: key: +: indicates that the organism tested was capable of utilizing the carbon source listed; −: indicates that the organism tested was not capable of utilizing the carbon source listed; indicates weak positive reactions.
Assay type: cell-based, Escherichia coli
O=P(O)(O)OCC(O)CO (racemic) [D,L-α-glycerol phosphate] was tested, and the carbon source utilization was “+ and −”.
In the case of O=C(CO)[C@@H](O)[C@H](O)[C@H](O)COP(=O)(O)O [Fructose-6-phosphate], the carbon source utilization is reported as “+”.
For O=P(O)(O)O[C@H]1O[C@H](CO)[C@@H](O)[C@H](O)[C@H]1O [Glucose-1-phosphate], the carbon source utilization was “+”.
O=C[C@H](O)[C@@H](O)[C@H](O)[C@H](O)COP(=O)(O)O [Glucose-6-phosphate] was tested, and the carbon source utilization was “+”.

Each compound was assayed on E. coli MG1655.
Assay type: cell-based, Escherichia coli
With O=P(O)(O)OCC(O)CO (racemic) [D,L-α-glycerol phosphate] the “suitability as phosphorus source (growth, purple color)” value (shortened to “suitability as phosphorus source”) was “positive”.
In the case of O=C(CO)[C@@H](O)[C@H](O)[C@H](O)COP(=O)(O)O [Fructose-6-phosphate], the “suitability as phosphorus source” value is reported as “positive”.
In the case of O=P(O)(O)O[C@H]1O[C@H](CO)[C@@H](O)[C@H](O)[C@H]1O [Glucose-1-phosphate], the “suitability as phosphorus source” value is reported as “positive”.
O=C[C@H](O)[C@@H](O)[C@H](O)[C@H](O)COP(=O)(O)O [Glucose-6-phosphate] was tested, and the “suitability as phosphorus source” value was “positive”.
In the case of C[C@@H](OP(=O)(O)O)[C@H](N)C(=O)O [O-phospho-L-threonine], the “suitability as phosphorus source” value is reported as “positive”.
For N[C@@H](Cc1ccc(OP(=O)(O)O)cc1)C(=O)O [O-phospho-L-tyrosine], the “suitability as phosphorus source” value was “positive”.
With CSC[C@H](N)C(=O)O [S-methyl-L-cysteine] the “suitability as sulfur source (growth, purple color)” value (“suitability as sulfur source” below) was “weak positive”.
Nc1ncnc2c1ncn2C1OC(CO)C2OP(=O)(O)OC21 (stereo not shown) [adenosine 2′:3′-cyclic monophosphate] was tested, and the “suitability as phosphorus source” value was “not suitable”.
O=C[C@@H](O)[C@H](O)[C@H](O)COP(=O)(O)O [arabinose 5-phosphate] was tested, and the “suitability as phosphorus source” value was “positive”.
With N[C@@H](CCSC[C@H](N)C(=O)O)C(=O)O [cystathionine] the “suitability as sulfur source” value was “positive”.
With Nc1ccn([C@@H]2O[C@H](CO)C3OP(=O)(O)O[C@@H]32)c(=O)n1 (stereo partly shown) [cytidine 2′:3′-cyclic monophosphate] the “suitability as phosphorus source” value was “positive”.
For Nc1ccn([C@@H]2O[C@@H]3COP(=O)(O)O[C@H]3[C@H]2O)c(=O)n1 [cytidine 3′:5′-cyclic monophosphate], the “suitability as phosphorus source” value was “not suitable”.
With OP(O)(=S)S [dithiophosphate] the “suitability as phosphorus source” value was “positive” and the “suitability as sulfur source” value was “positive”.
For O=C(COP(=O)(O)O)[C@@H](O)[C@H](O)[C@H](O)CO [fructose 1-phosphate], the “suitability as phosphorus source” value was “positive”.
N[C@H]1C(OP(=O)(O)O)O[C@H](CO)[C@@H](O)[C@@H]1O (stereo partly shown) [glucosamine 1-phosphate] was tested, and the “suitability as phosphorus source” value was “positive”.
N[C@H]1C(O)O[C@H](COP(=O)(O)O)[C@@H](O)[C@@H]1O (stereo partly shown) [glucosamine 6-phosphate] was tested, and the “suitability as phosphorus source” value was “positive”.
In the case of Nc1nc2c(ncn2[C@@H]2O[C@H](CO)[C@H]3OP(=O)(O)O[C@H]32)c(=O)[nH]1 [guanosine 2′:3′-cyclic monophosphate], the “suitability as phosphorus source” value is reported as “positive”.
For Nc1nc2c(ncn2[C@@H]2O[C@H](CO)[C@@H](OP(=O)(O)O)[C@H]2O)c(=O)[nH]1 [guanosine 3′-monophosphate], the “suitability as phosphorus source” value was “positive”.
Nc1nc2c(ncn2[C@@H]2O[C@@H]3COP(=O)(O)O[C@H]3[C@H]2O)c(=O)[nH]1 [guanosine 3′:5′-cyclic monophosphate] was tested, and the “suitability as phosphorus source” value was “not suitable”.
For NCCS(=O)O [hypotaurine], the “suitability as sulfur source” value was “positive”.
O=P(O)(O)O[C@H]1[C@H](OP(=O)(O)O)[C@@H](OP(=O)(O)O)[C@H](OP(=O)(O)O)[C@@H](OP(=O)(O)O)[C@H]1OP(=O)(O)O [inositol hexaphosphate] was tested, and the “suitability as phosphorus source” value was “not suitable”.
For O=S(=O)(O)CCO [isethionate], the “suitability as sulfur source” value was “positive”.
In the case of N[C@@H](CSC[C@H](N)C(=O)O)C(=O)O [lanthionine], the “suitability as sulfur source” value is reported as “positive”.
For O=P(O)(O)OC1O[C@H](CO)[C@@H](O)[C@H](O)[C@@H]1O (stereo partly shown) [mannose 1-phosphate], the “suitability as phosphorus source” value was “positive”.
With O=C[C@@H](O)[C@@H](O)[C@H](O)[C@H](O)COP(=O)(O)O [mannose 6-phosphate] the “suitability as phosphorus source” value was “positive”.
O=P(O)(O)CP(=O)(O)O [methylene diphosphonic acid] was tested, and the “suitability as phosphorus source” value was “not suitable”.
With O=[N+]([O-])c1ccc(OP(=O)(O)O)cc1 [nitrophenyl phosphate] the “suitability as phosphorus source” value was “not suitable”.
CN(CC(=O)O)C(=N)NP(=O)(O)O [phosphocreatine] was tested, and the “suitability as phosphorus source” value was “positive”.
In the case of C=C(OP(=O)(O)O)C(=O)O [phosphoenol pyruvate], the “suitability as phosphorus source” value is reported as “positive”.
O=C(O)COP(=O)(O)O [phosphoglycolic acid] was tested, and the “suitability as phosphorus source” value was “positive”.
With O=C(O)CP(=O)(O)O [phosphonoacetic acid] the “suitability as phosphorus source” value was “not suitable”.
In the case of O=P(O)(O)OP(=O)(O)O [pyrophosphate], the “suitability as phosphorus source” value is reported as “not suitable”.
NCCS(=O)(=O)O [taurine] was tested, and the “suitability as sulfur source” value was “positive”.
For C[C@H](CCC(=O)NCCS(=O)(=O)O)[C@H]1CC[C@H]2[C@@H]3[C@H](O)C[C@@H]4C[C@H](O)CC[C@]4(C)[C@H]3C[C@H](O)[C@]12C [taurocholic acid], the “suitability as sulfur source” value was “positive”.
With O=S1(=O)CCCC1 [tetramethylene sulfone] the “suitability as sulfur source” value was “not suitable”.
For O=S(=O)(O)SSS(=O)(=O)O [tetrathionate], the “suitability as sulfur source” value was “positive”.
In the case of O=C(O)CS [thioglycolic acid], the “suitability as sulfur source” value is reported as “not suitable”.
For OP(O)(O)=S [thiophosphate], the “suitability as phosphorus source” value was “positive” and the “suitability as sulfur source” value was “positive”.
For O=S(O)(O)=S [thiosulfate], the “suitability as sulfur source” value was “positive”.
For Cc1cn([C@H]2C[C@@H]3OP(=O)(O)OC[C@H]3O2)c(=O)[nH]c1=O [thymidine 3′:5′-cyclic monophosphate], the “suitability as phosphorus source” value was “not suitable”.
For Cc1cn([C@H]2C[C@H](O)[C@@H](COP(=O)(O)O)O2)c(=O)[nH]c1=O [thymidine 5′-monophosphate], the “suitability as phosphorus source” value was “positive”.
With Cc1cn([C@H]2C[C@H](OP(=O)(O)O)[C@@H](CO)O2)c(=O)[nH]c1=O [thyrnidine 3′-monophosphate] the “suitability as phosphorus source” value was “positive”.
O=P(O)(O)OP(=O)(O)OP(=O)(O)O [tripolyphosphate] was tested, and the “suitability as phosphorus source” value was “not suitable”.
With O=c1ccn([C@@H]2O[C@H](CO)[C@@H](O)[C@H]2OP(=O)(O)O)c(=O)[nH]1 [uridine 2′-monophosphate] the “suitability as phosphorus source” value was “positive”.
O=c1ccn([C@@H]2O[C@H](CO)[C@H]3OP(=O)(O)O[C@H]32)c(=O)[nH]1 [uridine 2′:3′-cyclic monophosphate] was tested, and the “suitability as phosphorus source” value was “positive”.
For O=c1ccn([C@@H]2O[C@@H]3COP(=O)(O)O[C@H]3[C@H]2O)c(=O)[nH]1 [uridine 3′:5′-cyclic monophosphate], the “suitability as phosphorus source” value was “not suitable”.
O=P(O)(O)OC(CO)CO [β-glycerophosphate] was tested, and the “suitability as phosphorus source” value was “positive”.
With O-acetyle-serine with sodium sulfate the “suitability as sulfur source” value was “positive”.
In the case of phosphatidyl glycerol, the “suitability as phosphorus source” value is reported as “not suitable”.
